# According to patent US20100144690A1, “MEDICAMENTS AND METHODS FOR PROMOTING WOUND CONTRACTION” (RENOVO LIMITED, priority 2006, published 2010):
# How the values were obtained:
# [1] = cited from earlier work
# incisional wounds = experiment: Incisional scarring model, macroscopic and microscopic VAS scar assessment 70 days after wounding; assay type: in vivo, Male Sprague Dawley rats
# Description: The guggulsterone (Z) was diluted in a solution containing 1% v/v ethanol (absolute ethanol, 200 proof, for molecular biology, purchased from Sigma-Aldrich) in phosphate buffered saline (PBS) to produce three solutions having concentrations as follows: • 1. 1 ng/100 μl (a 32 nM solution); • 2. 10 ng/100 μl (a 321 nM solution); and • 3. 1000 ng/100 μl (a 32 μM solution). At Day 0, male Sprague Dawley rats (200-250 g) were anaesthetised, shaved and wound sites were marked according to the Renovo rat incisional wounding template (2 wound model, 2×1 cm wounds at 5 cm from the base of the skull and 1 cm from the midline in each rat). […] The scars were assessed using standard macroscopic scar assessment sheets that include a Visual Analogue Scale (VAS) to quantify the quality of the scars. […] 70 days after wounding the experimental rats were killed, and the scars resulting from treated wounds and control wounds assessed both macroscopically and microscopically. The scars of the experimental rats were photographed and assessed using macroscopic scar assessment sheets. […] The best scars (typically of small width with colour, height and contour like normal skin) were scored towards the normal skin end of the scale (the left hand side of the VAS line) and bad scars (typically large width, raised with uneven contours and whiter colour) were scored towards the bad scar end of the scale (the right hand side of the VAS line). The marks were measured from the left hand side to provide the final value for the scar assessment in centimetres (to 1 decimal place). […] Histological slides were stained using Masson's trichrome, and scarring assessed, by two independent observers, using a microscopic visual analogue scale (VAS). […]
# excisional wounds = experiment: Excisional wound healing model, wound width and re-epithelialisation three days after wounding; assay type: in vivo, Male Sprague Dawley rats; settings: for wound width of excisional wounds: three days after wounding, p<0.05 vs controls
# Description: The guggulsterone (Z) was diluted in a solution containing 1% v/v ethanol (absolute ethanol, 200 proof, for molecular biology, purchased from Sigma-Aldrich) in phosphate buffered saline (PBS) to produce three solutions having concentrations as follows: • 1. 1 ng/100 μl (a 32 nM solution); • 2. 10 ng/100 μl (a 321 nM solution); and • 3. 1000 ng/100 μl (a 32 μM solution). At day 0, Male Sprague Dawley rats (200-250 g) were anaesthetised, shaved and wound sites were marked according to the Renovo rat incisional and excisional wounding template (4 wound model, 2×1 cm wounds at 5 cm from the base of the skull and 1 cm from the midline in each rat and 2×5 mm excisions at 8.5 cm from the base of the skull and 1 cm from the midline of each rat). One hundred microlitres of Guggulsterone (Z) at 1 ng, 10 ng or 1000 ng in 1% v/v ethanol/PBS (EtOH/PBS), were injected intradermally at the target wound sites, A, B, C and D. The intradermal injections caused the formation of a raised bleb, which was then either immediately incised to form 1 cm long experimental wounds at wound positions A and B, or subject to a 5 mm punch biopsy, at wound positions C and D. A separate group of rats were wounded, without any injection, to act as the untreated Naïve control group in addition to the diluent injected control group. All treated wounds were re-injected again 1 day post-wounding with the appropriate treatment via either injection of […] to each of the two margins of the 1 cm wound, or via injection of 25 μl to each of the four quadrants of a 5 mm punch biopsy, and harvested at day 3 post-wounding. […] The wounds were assessed using standard macroscopic wound assessment sheets that include a Visual Analogue Scale (VAS) to quantify the quality of the wounds. The excisions and incisions were analysed microscopically, after histological processing by image analysis for re-epithelialisation (excisions only) and wound width (incisions only) to determine the role of Guggulsterone (Z) on early wound healing. […] The average wound width value was calculated from all of the wounds at each treatment group.
# [2] = each concentration investigated (1, 10, 1000 ng/100 μl), 70 days post-wounding
smiles,measurement,setting,value
"C/C=C1\C(=O)CC2C3CCC4=CC(=O)CC[C@]4(C)C3CC[C@]12C (stereo partly drawn) [Guggulsterone (Z), (17Z)-Pregna-4,17(20)-diene-3,16-dione-4,17(20)-cis-Pregnadiene-3,16-dione]",soluble in DMSO,"[1]; DMSO, room temperature",5 mg/mL
same,soluble in ethanol,[1]; ethanol,soluble
same,"inhibition of scarring, macroscopic analysis of scars",incisional wounds; [2],significantly inhibit scarring
same,"inhibition of scarring, microscopic analysis of scars",incisional wounds; [2],significantly inhibit scarring
same,macroscopic appearance of treated scar versus naïve control scar (FIG. 3),"incisional wounds; representative images, 70 days after wounding",considerably more difficult to detect
same,wound width of excisional wounds,excisional wounds; 1 ng/100 μl (3.2 pmoles per cm of wound),significantly decreased wound width
same,wound width of excisional wounds,excisional wounds; 10 ng/100 μl (32 pmoles per cm of wound),significantly decreased wound width
same,"promotion of wound contraction, by width of excisional wounds",excisional wounds; three days after wound formation,able to promote wound contraction
